Measured values from patent US20070072831A1, “Integrase inhibitor compounds” (GILEAD SCIENCES, INC., priority 2005, published 2007).
Like-named read-outs stand apart in the source and are kept apart here.

Columns and labels:
HIV integrase = HIV integrase (Human immunodeficiency virus type 1 group M subtype B, UniProt P04585); experiment: biochemical
HIV-IIIb = experiment: Antiviral assay in MT-4 cells infected with HIV-IIIb; assay type: cell-based; settings: MT4, 120 h, read-out: EC50 Range MT-4
Protocol: See: Wolfe, etal J. Virol.
Antiviral Assays in MT2 and MT4 Cells
For the antiviral assay utilizing MT-2 cells, 50 μl of 2× test concentration of 5-fold serially diluted compound in culture medium with 10% FBS was added to each well of a 96-well plate (9 concentrations) in triplicate. MT-2 cells were infected with HIV-IIIb at a multiplicity of infection (m.o.i) of 0.01 for 3 hours. Fifty microliters of infected cell suspension in culture medium with 10% FBS (˜1.5×10^4 cells) was then added to each well containing 50 μl of diluted compound. The plates were then incubated at 37° C. for 5 days. For the antiviral assay utilizing MT-4 cells, 20 μl of 2× test concentration of 5-fold serially diluted compound in culture medium with 10% FBS was added to each well of a 384-well plate (7 concentrations) in triplicate. MT-4 cells were next mixed with HIV-IIIb at an m.o.i. of 0.1 and 20 μl of virus/cell mixture (˜2000 cells) was immediately added to each well containing 20 μl of diluted compound. The plates were then incubated at 37° C. for 5 days. After 5 days of incubation, 100 μl of CellTiter-Glo™ Reagent (catalog # G7571, Promega Biosciences, Inc., Madison, Wis.) was added to each well containing MT-2 cells and 40 μl to each well containing MT-4 cells. Cell lysis was carried out by incubating at room temperature for 10 min and then chemiluminescence was read.

Compound	IC50 (HIV integrase) [nM]	EC50 (HIV-IIIb; MT-4 cells, HIV-IIIb, 5 days) [nM]	EC50 (HIV-IIIb) [nM]
CC(=O)Nc1nc(C)c(S(=O)(=O)N(C)c2c3c(c(O)c4ncccc24)C(=O)N(Cc2ccc(F)cc2)C3)s1 [Compound 160, N-(5-(N-(7-(4-fluorobenzyl)-9-hydroxy-8-oxo-7,8-dihydro-6H-pyrrolo[3,4-g]quinolin-5-yl)-N-methylsulfamoyl)-4-methylthiazol-2-yl)acetamide]	60 to 1000	60 to 1000	
CN(c1c2c(c(O)c3ncccc13)C(=O)N(Cc1ccc(F)cc1)C2)S(=O)(=O)CCCN1CCOCC1 [Compound 46, N-(7-(4-fluorobenzyl)-9-hydroxy-8-oxo-7,8-dihydro-6H-pyrrolo[3,4-g]quinolin-5-yl)-N-methyl-3-morpholinopropane-1-sulfonamide]		< 60	
CN(c1c2c(c(O)c3ncccc13)C(=O)N(Cc1ccc(Cl)cc1F)C2)S(C)(=O)=O [Compound 189, N-(7-(4-chloro-2-fluorobenzyl)-9-hydroxy-8-oxo-7,8-dihydro-6H-pyrrolo[3,4-g]quinolin-5-yl)-N-methylmethanesulfonamide]	60 to 1000	< 60	
CN(c1c2c(c(O)c3ncccc13)C(=O)N(Cc1ccc(F)nc1)C2)S(C)(=O)=O [Compound 97, N-(7-((6-fluoropyridin-3-yl)methyl)-9-hydroxy-8-oxo-7,8-dihydro-6H-pyrrolo[3,4-g]quinolin-5-yl)-N-methylmethanesulfonamide]	60 to 1000	60 to 1000	
CN(C)c1cccc2c(S(=O)(=O)N(C)c3c4c(c(O)c5ncccc35)C(=O)N(Cc3ccc(F)cc3)C4)cccc12 [Compound 154, 5-(dimethylamino)-N-(7-(4-fluorobenzyl)-9-hydroxy-8-oxo-7,8-dihydro-6H-pyrrolo[3,4-g]quinolin-5-yl)-N-methylnaphthalene-1-sulfonamide]	60 to 1000	> 1000	
CN(c1c2c(c(O)c3ncccc13)C(=O)N(Cc1ccc(F)cc1)C2)S(=O)(=O)c1ccc(N2CCOCC2)nc1 [Compound 159, N-(7-(4-fluorobenzyl)-9-hydroxy-8-oxo-7,8-dihydro-6H-pyrrolo[3,4-g]quinolin-5-yl)-N-methyl-6-morpholinopyridine-3-sulfonamide]	60 to 1000	60 to 1000	
CN(C)C(=O)N(C)c1c2c(c(O)c3ncccc13)C(=O)N(Cc1ccc(F)cc1)C2 [Compound 171, 1-(7-(4-fluorobenzyl)-9-hydroxy-8-oxo-7,8-dihydro-6H-pyrrolo[3,4-g]quinolin-5-yl)-1,3,3-trimethylurea]	< 60	< 60	
CN(c1c2c(c(O)c3ncccc13)C(=O)N(Cc1c(F)cccc1F)C2)S(C)(=O)=O [Compound 195, N-(7-(2,6-difluorobenzyl)-9-hydroxy-8-oxo-7,8-dihydro-6H-pyrrolo[3,4-g]quinolin-5-yl)-N-methylmethanesulfonamide]	60 to 1000	60 to 1000	
CN(c1c2c(c(O)c3ncccc13)C(=O)N(Cc1cccc(Cl)c1F)C2)S(C)(=O)=O [Compound 177, N-(7-(3-chloro-2-fluorobenzyl)-9-hydroxy-8-oxo-7,8-dihydro-6H-pyrrolo[3,4-g]quinolin-5-yl)-N-methylmethanesulfonamide]	60 to 1000	< 60	
CCN(CC)CCS(=O)(=O)N(C)c1c2c(c(O)c3ncccc13)C(=O)N(Cc1ccc(F)cc1)C2 [Compound 161, 2-(diethylamino)-N-(7-(4-fluorobenzyl)-9-hydroxy-8-oxo-7,8-dihydro-6H-pyrrolo[3,4-g]quinolin-5-yl)-N-methylethanesulfonamide]	60 to 1000	< 60	
CCOC(=O)N(C)c1c2c(c(O)c3ncccc13)C(=O)N(Cc1ccc(F)cc1)C2(C)C [Compound 115, ethyl 7-(4-fluorobenzyl)-9-hydroxy-6,6-dimethyl-8-oxo-7,8-dihydro-6H-pyrrolo[3,4-g]quinolin-5-yl(methyl)carbamate]	60 to 1000	> 1000	
CN(c1c2c(c(O)c3ncccc13)C(=O)N(Cc1ccc(F)cc1)C2)S(=O)(=O)CCN1CCNCC1 [Compound 164, N-(7-(4-fluorobenzyl)-9-hydroxy-8-oxo-7,8-dihydro-6H-pyrrolo[3,4-g]quinolin-5-yl)-N-methyl-2-(piperazin-1-yl)ethanesulfonamide]	60 to 1000	60 to 1000	
CC(C)OC(=O)Oc1c2c(c(N(C)S(C)(=O)=O)c3cccnc13)CN(Cc1ccc(F)cc1)C2=O [Compound 34, 7-(4-fluorobenzyl)-5-(N-methylmethan-5-ylsulfonamido)-8-oxo-7,8-dihydro-6H-pyrrolo[3,4-g]quinolin-9-yl isopropyl carbonate]	> 1000	< 60	
CN(c1c2c(c(O)c3ncccc13)C(=O)N(Cc1ccc(F)cc1S(=O)(=O)N(C)C)C2)S(C)(=O)=O [Compound 109, 5-fluoro-2-((9-(hydroxy)-5-(N-methylmethylsulfonamido)-8-oxo-6H-pyrrolo[3,4-g]quinolin-7(8H)-yl)methyl)-N,N-dimethylbenzenesulfonamide]	60 to 1000	< 60	
CN(c1c2c(c(O)c3ncccc13)C(=O)N(Cc1ccc(F)c(Cl)c1)C2)S(C)(=O)=O [Compound 181, N-(7-(3-chloro-4-fluorobenzyl)-9-hydroxy-8-oxo-7,8-dihydro-6H-pyrrolo[3,4-g]quinolin-5-yl)-N-methylmethanesulfonamide]	< 60	< 60	
O=C1c2c(c(N3CCNS3(=O)=O)c3cccnc3c2O)CN1Cc1ccc(F)cc1 [Compound 214]	< 60	< 60	
COc1ccc(CN2Cc3c(c(O)c4ncccc4c3N(C)S(C)(=O)=O)C2=O)c(OC)c1 [Compound 143, N-(7-(2,4-dimethoxybenzyl)-9-hydroxy-8-oxo-7,8-dihydro-6H-pyrrolo[3,4-g]quinolin-5-yl)-N-methylmethanesulfonamide]	60 to 1000	60 to 1000	
CN(c1c2c(c(O)c3ncccc13)C(=O)N(Cc1cccc(Cl)c1)C2)S(C)(=O)=O [Compound 175, N-(7-(3-chlorobenzyl)-9-hydroxy-8-oxo-7,8-dihydro-6H-pyrrolo[3,4-g]quinolin-5-yl)-N-methylmethanesulfonamide]	60 to 1000	< 60	
CN(c1c2c(c(O)c3ncccc13)C(=O)N(Cc1ccc(F)cc1S(C)(=O)=O)C2)S(C)(=O)=O [Compound 106, N-(7-(4-fluoro-2-(methylsulfonyl)benzyl)-9-hydroxy-8-oxo-7,8-dihydro-6H-pyrrolo[3,4-g]quinolin-5-yl)-N-methylmethanesulfonamide]	60 to 1000	< 60	
CN1CCCN(c2c3c(c(O)c4ncccc24)C(=O)N(Cc2ccc(F)cc2)C3)C1=O [Compound 224, 7-(4-fluorobenzyl)-9-hydroxy-5-(3-methyl-2-oxo-tetrahydropyrimidin-1(2H)-yl)-6,7-dihydropyrrolo[3,4-g]quinolin-8-one]	< 60		60 to 1000
CN(c1c2c(c(O)c3ncccc13)C(=O)N(Cc1ccc(F)cc1)C2)S(N)(=O)=O [Compound 132, N-(7-(4-fluorobenzyl)-9-hydroxy-8-oxo-7,8-dihydro-6H-pyrrolo[3,4-g]quinolin-5-yl)-N-methylsulfamide]	< 60	< 60	
CN(c1c2c(c(O)c3ncccc13)C(=O)N(Cc1ccc(Cl)c(Cl)c1)C2)S(C)(=O)=O [Compound 197, N-(7-(3,4-dichlorobenzyl)-9-hydroxy-8-oxo-7,8-dihydro-6H-pyrrolo[3,4-g]quinolin-5-yl)-N-methylmethanesulfonamide]	60 to 1000	< 60	
CN(c1c2c(c(O)c3ncccc13)C(=O)N(Cc1ccc(F)cc1F)C2)S(C)(=O)=O [Compound 145, N-(7-(2,4-difluorobenzyl)-9-hydroxy-8-oxo-7,8-dihydro-6H-pyrrolo[3,4-g]quinolin-5-yl)-N-methylmethanesulfonamide]	< 60	< 60	
CN(C)C(=O)C(=O)N(C)c1c2c(c(O)c3ncccc13)C(=O)N(Cc1ccc(F)cc1)C2 [Compound 62, N1-(7-(4-fluorobenzyl)-9-hydroxy-8-oxo-7,8-dihydro-6H-pyrrolo[3,4-g]quinolin-5-yl)-N1,N2,N2-trimethyloxalamide]	60 to 1000	< 60	
CCNS(=O)(=O)N(CC)c1c2c(c(O)c3ncccc13)C(=O)N(Cc1ccc(F)cc1)C2 [Compound 232]		< 60	
CN(c1c2c(c(O)c3ncccc13)C(=O)N(Cc1ccc(F)cc1)C2)S(=O)(=O)CCCn1ccnc1 [Compound 49, N-(7-(4-fluorobenzyl)-9-hydroxy-8-oxo-7,8-dihydro-6H-pyrrolo[3,4-g]quinolin-5-yl)-3-(1 H-imidazol-1-yl)-N-methylpropane-1-sulfonamide]		< 60	
CN(c1c2c(c(O)c3ncccc13)C(=O)N(Cc1ccc(F)cc1)C2)S(=O)(=O)CCCC#N [Compound 48, 3-cyano-N-(7-(4-fluorobenzyl)-9-hydroxy-8-oxo-7,8-dihydro-6H-pyrrolo[3,4-g]quinolin-5-yl)-N-methylpropane-1-sulfonamide]		< 60	
